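Following 48 hours of exposure in 96-well plates, responses at five concentrations were used to interpolate endpoints linearly. GI50 marks 50% less growth. The concentration for full growth arrest is given as TGI.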
What was measured:
Assay in all cases: NCI-60 cell line screen, 48 h
HL-60(TB) leukemia = test system: HL-60(TB) leukemia
UO-31 renal = test system: UO-31 renal
HT29 colon = test system: HT29 colon
KM12 colon = test system: KM12 colon
SK-MEL-5 melanoma = test system: SK-MEL-5 melanoma
HCT-116 colon = test system: HCT-116 colon
UACC-62 melanoma = test system: UACC-62 melanoma
UACC-257 melanoma = test system: UACC-257 melanoma
HCT-15 colon = test system: HCT-15 colon
TK-10 renal = test system: TK-10 renal
M14 melanoma = test system: M14 melanoma
OVCAR-3 ovarian = test system: OVCAR-3 ovarian
CAKI-1 renal = test system: CAKI-1 renal
OVCAR-4 ovarian = test system: OVCAR-4 ovarian
A498 renal = test system: A498 renal
HCC-2998 colon = test system: HCC-2998 colon
NCI-H522 lung = test system: NCI-H522 lung
LOX IMVI melanoma = test system: LOX IMVI melanoma
RXF 393 renal = test system: RXF 393 renal
HOP-62 NSCLC = test system: HOP-62 NSCLC
T-47D breast = test system: T-47D breast
MALME-3M melanoma = test system: MALME-3M melanoma
A549 NSCLC = test system: A549 NSCLC
SF-268 CNS = test system: SF-268 CNS
SR leukemia = test system: SR leukemia
SW-620 colon = test system: SW-620 colon
RPMI-8226 leukemia = test system: RPMI-8226 leukemia
K-562 leukemia = test system: K-562 leukemia

Question: How did the GI50 (HL-60(TB) leukemia) turn out when O=C(C[Si](CC(=O)c1cccc(C(F)(F)F)c1)CC(=O)c1cccc(C(F)(F)F)c1)c1cccc(C(F)(F)F)c1 was run?
Answer: Its GI50 is 2.52 µM.

Question: And the TGI (HL-60(TB) leukemia)?
Answer: The TGI was 5.99 µM.

Question: What about the GI50 (UO-31 renal) of the same compound?
Answer: The GI50 was 3.2 µM.

Question: And the TGI (UO-31 renal)?
Answer: Its TGI is 14.2 µM.

Question: What about the GI50 (HT29 colon) of the same compound?
Answer: Its GI50 is 2.55 µM.

Question: And the TGI (HT29 colon)?
Answer: Its TGI is 12 µM.

Question: And the GI50 (KM12 colon)?
Answer: Its GI50 is 3.25 µM.

Question: What about the TGI (KM12 colon) of the same compound?
Answer: The TGI was 10.1 µM.

Question: What about the GI50 (SK-MEL-5 melanoma) of the same compound?
Answer: Its GI50 is 1.63 µM.

Question: And the TGI (SK-MEL-5 melanoma)?
Answer: Its TGI is 3.03 µM.

Question: And the GI50 (HCT-116 colon)?
Answer: Its GI50 is 2.41 µM.

Question: What about the TGI (HCT-116 colon) of the same compound?
Answer: The TGI was 8.87 µM.

Question: What about the GI50 (UACC-62 melanoma) of the same compound?
Answer: Its GI50 is 2.23 µM.

Question: And the TGI (UACC-62 melanoma)?
Answer: The TGI was 6.28 µM.

Question: What about the GI50 (UACC-257 melanoma) of the same compound?
Answer: The GI50 was 2.65 µM.

Question: And the TGI (UACC-257 melanoma)?
Answer: The TGI was 6.38 µM.

Question: What about the GI50 (HCT-15 colon) of the same compound?
Answer: The GI50 was 2.06 µM.

Question: And the TGI (HCT-15 colon)?
Answer: Its TGI is 6.25 µM.

Question: What about the GI50 (TK-10 renal) of the same compound?
Answer: The GI50 was 3.52 µM.

Question: And the TGI (TK-10 renal)?
Answer: The TGI was 14.1 µM.

Question: And the GI50 (M14 melanoma)?
Answer: Its GI50 is 3.16 µM.

Question: What about the TGI (M14 melanoma) of the same compound?
Answer: The TGI was 10.1 µM.

Question: What about the GI50 (OVCAR-3 ovarian) of the same compound?
Answer: The GI50 was 3.32 µM.

Question: And the TGI (OVCAR-3 ovarian)?
Answer: Its TGI is 10.5 µM.

Question: And the GI50 (CAKI-1 renal)?
Answer: The GI50 was 3.39 µM.

Question: What about the TGI (CAKI-1 renal) of the same compound?
Answer: The TGI was 12.9 µM.

Question: What about the GI50 (OVCAR-4 ovarian) of the same compound?
Answer: The GI50 was 3.12 µM.

Question: And the TGI (OVCAR-4 ovarian)?
Answer: Its TGI is 12.1 µM.

Question: What about the GI50 (A498 renal) of the same compound?
Answer: Its GI50 is 2.34 µM.

Question: What about the TGI (A498 renal) of the same compound?
Answer: The TGI was 9.62 µM.

Question: And the GI50 (HCC-2998 colon)?
Answer: The GI50 was 3.46 µM.

Question: And the TGI (HCC-2998 colon)?
Answer: Its TGI is 15 µM.

Question: What about the GI50 (NCI-H522 lung) of the same compound?
Answer: The GI50 was 2.6 µM.

Question: And the TGI (NCI-H522 lung)?
Answer: Its TGI is 9.01 µM.

Question: And the GI50 (LOX IMVI melanoma)?
Answer: The GI50 was 2.94 µM.

Question: And the TGI (LOX IMVI melanoma)?
Answer: The TGI was 11.4 µM.

Question: And the GI50 (RXF 393 renal)?
Answer: The GI50 was 2.07 µM.

Question: What about the TGI (RXF 393 renal) of the same compound?
Answer: Its TGI is 4.3 µM.

Question: And the GI50 (HOP-62 NSCLC)?
Answer: Its GI50 is 3.44 µM.

Question: What about the TGI (HOP-62 NSCLC) of the same compound?
Answer: Its TGI is 12 µM.

Question: And the GI50 (T-47D breast)?
Answer: The GI50 was 4.48 µM.

Question: What about the TGI (T-47D breast) of the same compound?
Answer: The TGI was 13.9 µM.

Question: And the GI50 (MALME-3M melanoma)?
Answer: Its GI50 is 4.03 µM.

Question: And the TGI (MALME-3M melanoma)?
Answer: The TGI was 17.4 µM.

Question: And the GI50 (A549 NSCLC)?
Answer: The GI50 was 3.39 µM.

Question: And the TGI (A549 NSCLC)?
Answer: The TGI was 11.3 µM.

Question: What about the GI50 (SF-268 CNS) of the same compound?
Answer: Its GI50 is 3.8 µM.

Question: And the TGI (SF-268 CNS)?
Answer: Its TGI is 13.9 µM.

Question: What about the GI50 (SR leukemia) of the same compound?
Answer: Its GI50 is 2.72 µM.

Question: What about the TGI (SR leukemia) of the same compound?
Answer: Its TGI is 7.19 µM.

Question: What about the GI50 (SW-620 colon) of the same compound?
Answer: Its GI50 is 3.23 µM.

Question: And the TGI (SW-620 colon)?
Answer: The TGI was 13.3 µM.

Question: What about the GI50 (RPMI-8226 leukemia) of the same compound?
Answer: The GI50 was 2.12 µM.

Question: What about the TGI (RPMI-8226 leukemia) of the same compound?
Answer: The TGI was 5.71 µM.

Question: And the GI50 (K-562 leukemia)?
Answer: The GI50 was 3.57 µM.

From PubChem BioAssay (NCI)
